Assay results taken from BindingDB's records for doi:10.1042/BJ20021535 (University of Dundee, 2003).

Experiments:
[1] = target: Tyrosine-protein kinase Lck (Homo sapiens, UniProt P06239)
[2] = target: Cyclin-dependent kinase 2 (Homo sapiens, UniProt P24941)
[3] = target: T1, Serine/threonine-protein kinase Sgk1 (Homo sapiens, UniProt O00141)
T1 sequence (O00141 whole entry): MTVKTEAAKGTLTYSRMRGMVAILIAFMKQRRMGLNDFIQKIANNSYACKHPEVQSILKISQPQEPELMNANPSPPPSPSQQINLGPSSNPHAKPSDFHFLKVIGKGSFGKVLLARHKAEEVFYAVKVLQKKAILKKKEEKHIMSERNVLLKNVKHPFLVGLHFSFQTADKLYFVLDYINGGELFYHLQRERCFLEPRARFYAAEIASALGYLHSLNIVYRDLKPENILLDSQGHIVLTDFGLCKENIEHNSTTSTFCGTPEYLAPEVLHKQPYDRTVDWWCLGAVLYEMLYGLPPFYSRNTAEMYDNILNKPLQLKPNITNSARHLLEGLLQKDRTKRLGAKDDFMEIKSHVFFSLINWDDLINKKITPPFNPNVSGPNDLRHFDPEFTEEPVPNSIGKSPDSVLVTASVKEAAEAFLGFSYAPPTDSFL

Ninein = Ninein (Homo sapiens, UniProt Q8N4C6)
Chain of Ninein (Q8N4C6 whole entry, canonical isoform): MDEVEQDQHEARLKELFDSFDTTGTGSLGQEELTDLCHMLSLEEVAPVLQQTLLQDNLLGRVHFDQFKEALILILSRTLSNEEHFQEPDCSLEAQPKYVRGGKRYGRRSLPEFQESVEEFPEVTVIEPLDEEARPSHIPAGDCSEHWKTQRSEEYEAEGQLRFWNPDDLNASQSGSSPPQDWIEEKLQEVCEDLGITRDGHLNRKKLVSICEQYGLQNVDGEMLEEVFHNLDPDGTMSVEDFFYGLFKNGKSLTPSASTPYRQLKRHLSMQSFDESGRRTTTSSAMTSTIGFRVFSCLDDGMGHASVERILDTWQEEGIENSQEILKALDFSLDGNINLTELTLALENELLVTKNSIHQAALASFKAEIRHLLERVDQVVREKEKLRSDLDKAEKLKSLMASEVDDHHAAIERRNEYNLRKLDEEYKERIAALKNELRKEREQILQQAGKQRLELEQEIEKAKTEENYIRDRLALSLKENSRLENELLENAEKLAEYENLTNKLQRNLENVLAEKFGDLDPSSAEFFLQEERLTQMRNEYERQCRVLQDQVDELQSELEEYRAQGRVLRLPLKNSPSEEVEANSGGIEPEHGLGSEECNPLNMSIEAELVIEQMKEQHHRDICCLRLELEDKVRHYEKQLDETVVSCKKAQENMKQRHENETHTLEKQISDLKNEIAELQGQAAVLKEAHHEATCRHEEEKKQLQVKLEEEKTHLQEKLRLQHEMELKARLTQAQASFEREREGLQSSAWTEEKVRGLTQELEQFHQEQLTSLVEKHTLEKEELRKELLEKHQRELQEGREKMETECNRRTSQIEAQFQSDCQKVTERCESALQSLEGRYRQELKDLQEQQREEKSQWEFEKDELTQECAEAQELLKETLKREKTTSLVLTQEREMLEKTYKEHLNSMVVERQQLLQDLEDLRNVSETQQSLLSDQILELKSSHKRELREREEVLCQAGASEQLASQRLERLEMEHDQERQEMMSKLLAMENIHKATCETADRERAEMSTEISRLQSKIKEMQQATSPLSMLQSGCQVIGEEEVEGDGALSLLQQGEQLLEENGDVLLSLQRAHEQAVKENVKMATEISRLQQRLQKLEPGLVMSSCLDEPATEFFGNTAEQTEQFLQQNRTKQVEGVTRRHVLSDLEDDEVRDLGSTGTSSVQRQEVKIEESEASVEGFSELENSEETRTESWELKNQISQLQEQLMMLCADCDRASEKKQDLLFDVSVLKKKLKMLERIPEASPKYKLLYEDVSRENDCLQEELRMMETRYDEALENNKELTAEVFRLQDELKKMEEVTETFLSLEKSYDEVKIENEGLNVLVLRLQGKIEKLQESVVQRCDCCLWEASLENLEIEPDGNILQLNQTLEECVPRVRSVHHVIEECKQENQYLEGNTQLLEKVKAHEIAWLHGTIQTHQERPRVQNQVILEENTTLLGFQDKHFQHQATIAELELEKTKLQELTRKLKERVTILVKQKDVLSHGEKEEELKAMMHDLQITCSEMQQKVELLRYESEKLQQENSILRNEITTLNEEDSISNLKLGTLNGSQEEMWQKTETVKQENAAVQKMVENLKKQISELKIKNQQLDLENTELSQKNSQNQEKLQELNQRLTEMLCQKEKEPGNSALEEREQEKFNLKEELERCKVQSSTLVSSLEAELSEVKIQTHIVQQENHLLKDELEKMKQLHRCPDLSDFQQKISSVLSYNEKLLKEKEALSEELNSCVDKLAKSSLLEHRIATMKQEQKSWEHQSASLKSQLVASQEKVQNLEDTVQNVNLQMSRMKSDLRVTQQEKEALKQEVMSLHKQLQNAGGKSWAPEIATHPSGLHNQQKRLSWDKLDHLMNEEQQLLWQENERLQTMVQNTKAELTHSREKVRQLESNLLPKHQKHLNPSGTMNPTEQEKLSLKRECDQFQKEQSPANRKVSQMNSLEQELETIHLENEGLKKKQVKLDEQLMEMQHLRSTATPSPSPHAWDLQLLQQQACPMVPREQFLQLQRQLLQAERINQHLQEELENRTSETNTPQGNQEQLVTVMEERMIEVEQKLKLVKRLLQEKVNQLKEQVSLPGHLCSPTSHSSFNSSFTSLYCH

[4] = target: Casein kinase I isoform delta (Rattus norvegicus, UniProt Q06486)
Chain of Casein kinase I isoform delta (Q06486 whole entry, canonical isoform): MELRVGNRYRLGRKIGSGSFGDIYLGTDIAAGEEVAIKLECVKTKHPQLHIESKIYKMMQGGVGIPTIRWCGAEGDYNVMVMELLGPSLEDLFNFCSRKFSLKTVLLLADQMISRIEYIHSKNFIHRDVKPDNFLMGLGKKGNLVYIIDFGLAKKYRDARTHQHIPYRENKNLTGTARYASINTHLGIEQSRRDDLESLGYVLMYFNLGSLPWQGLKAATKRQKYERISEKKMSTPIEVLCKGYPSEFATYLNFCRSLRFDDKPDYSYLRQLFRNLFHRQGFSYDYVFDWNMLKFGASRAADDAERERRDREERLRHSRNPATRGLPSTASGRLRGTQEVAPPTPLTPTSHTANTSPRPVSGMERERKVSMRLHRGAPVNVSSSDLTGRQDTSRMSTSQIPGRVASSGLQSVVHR

[5] = target: Dual specificity tyrosine-phosphorylation-regulated kinase 1A (Rattus norvegicus, UniProt Q63470)

Chain of Tyrosine-protein kinase Lck (P06239 whole entry): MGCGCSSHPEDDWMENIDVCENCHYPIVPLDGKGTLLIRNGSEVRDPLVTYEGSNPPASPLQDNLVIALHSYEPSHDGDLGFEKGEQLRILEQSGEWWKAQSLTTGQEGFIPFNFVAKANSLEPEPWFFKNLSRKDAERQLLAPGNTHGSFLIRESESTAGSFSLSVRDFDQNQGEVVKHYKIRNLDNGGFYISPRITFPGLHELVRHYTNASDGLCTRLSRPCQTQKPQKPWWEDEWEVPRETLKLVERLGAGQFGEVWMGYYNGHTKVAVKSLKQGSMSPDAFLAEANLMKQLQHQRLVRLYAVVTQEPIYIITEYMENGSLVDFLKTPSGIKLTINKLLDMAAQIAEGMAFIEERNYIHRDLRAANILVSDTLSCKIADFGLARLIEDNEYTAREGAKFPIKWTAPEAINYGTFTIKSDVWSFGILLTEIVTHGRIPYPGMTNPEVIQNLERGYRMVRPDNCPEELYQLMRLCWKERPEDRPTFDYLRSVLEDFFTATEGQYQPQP

| Compound | Ki [2] [nM] | Ki (Ninein) [nM] | Ki [4] [nM] | also measured |
| --- | --- | --- | --- | --- |
| O=Nc1c(C2C(=O)Nc3ccccc32)[nH]c2ccccc12 (centres undefined) [Indirubin-3 -monoxime] | 590 | 190 |  | Ki [1]: 300 nM; Ki [3]: 380 nM |
| Nc1ncnc2c1cnn2-c1ccccc1 [1-Phenyl-1H-pyrazolo[3,4-d]pyrimidin-4-ylamine] |  |  | 9900 |  |
| CC(C)[C@H](CO)Nc1nc(Nc2cccc(Cl)c2)c2ncn(C(C)C)c2n1 [(2R)-2-({6-[(3-chlorophenyl)amino]-9-(propan-2-yl)-9H-purin-2-yl}amino)-3-methylbutan-1-ol] | 100 |  |  | Ki [5]: 300 nM |
| CC[C@H](CO)Nc1nc(NCc2ccccc2)c2ncn(C(C)C)c2n1 [2,6,9-Trisubstituted purine deriv. 28] |  |  | > 10000 |  |
| O=C1Cc2c([nH]c3ccc([N+](=O)[O-])cc23)-c2ccccc2N1 [NSC 705701] |  | 110 |  |  |
